The source of these data is ChEMBL document CHEMBL5150076, “Discovery of Novel Orally Bioavailable Triazoles with Potent and Broad-Spectrum Antifungal Activity In Vitro and In Vivo” (J Med Chem, 2022).

≈ marks a conversion by molar mass, not a printed value. A value given as a limit tells only on which side of the number the result lay.

What all share (format): functional
In one experiment the test system is Candida parapsilosis. Description: Antifungal activity against Candida parapsilosis 22019. As to conditions: Lodderomyces parapsilosis.
The test system of experiment [1] is Candida albicans. Description: Antifungal activity against Candida albicans SC5314 incubated for 24 hrs by microbroth dilution method.
The subject of experiment [2] is Cryptococcus neoformans. Description: Antifungal activity against Cryptococcus neoformans H99 incubated for 72 hrs by microbroth dilution method. On the technique in general: In broth dilution the organism is exposed to a series of concentrations in liquid medium.
For the next experiment, the system named is Nakaseomyces glabratus. Description: Antifungal activity against Candida glabrata 537.
The test system of experiment [3] is Cryptococcus neoformans. Description: Antifungal activity against Cryptococcus neoformans 32605.
A further experiment relates to Aspergillus fumigatus. Description: Antifungal activity against Aspergillus fumigatus 7544 incubated for 48 hrs by microbroth dilution method.
In the next experiment the test system is Nannizzia gypsea. Description: Antifungal activity against Microsporum gypseum.
The next experiment has as its system Trichophyton rubrum. Description: Antifungal activity against Trichophyton rubrum cmccftla.
The test system of experiment [4] is Candida albicans. Description: Antifungal activity against Candida albicans Y0109.

For orientation: MIC means the least concentration at which growth counts as inhibited.

Consider `C[C@@H](c1cn(-c2cc(F)ccc2F)nn1)[C@](O)(Cn1cncn1)c1ccc(F)cc1F`, for which the MIC was determined as 0.0625 µg/mL (≈ 0.145 µM) with Candida parapsilosis; 0.0625 µg/mL (≈ 0.145 µM) in the experiment with Candida albicans [1]; 0.0625 µg/mL (≈ 0.145 µM) with Cryptococcus neoformans [2]; 0.0625 µg/mL (≈ 0.145 µM) in the experiment with Nakaseomyces glabratus; 0.0313 µg/mL (≈ 0.0724 µM) in the experiment with Cryptococcus neoformans [3]; 2 µg/mL (≈ 4.63 µM) with Aspergillus fumigatus. Moreover, the figures for the MIC in the experiment with Nannizzia gypsea, against Trichophyton rubrum and in the experiment with Candida albicans [4] were 2 µg/mL (≈ 4.63 µM), 0.25 µg/mL (≈ 0.578 µM) and 0.0313 µg/mL (≈ 0.0724 µM), respectively.
Consider `CCCCCCOc1ccc(-n2cc([C@H](C)[C@](O)(Cn3cncn3)c3ccc(F)cc3F)nn2)cc1`, for which the MIC in the experiment on Candida albicans [1] is 0.125 µg/mL (≈ 0.252 µM); in the experiment on Cryptococcus neoformans [2] it was 0.0625 µg/mL (≈ 0.126 µM); against Aspergillus fumigatus, 8 µg/mL (≈ 16.1 µM).
Take `C[C@@H](c1cn(-c2cccc(F)c2)nn1)[C@](O)(Cn1cncn1)c1ccc(F)cc1F`: the figures for the MIC in the experiment with Candida albicans [1], in the experiment with Cryptococcus neoformans [2] and with Aspergillus fumigatus were 0.0625 µg/mL (≈ 0.151 µM), 0.125 µg/mL (≈ 0.302 µM) and 16 µg/mL (≈ 38.6 µM), respectively.
Consider `C[C@@H](c1cn(-c2ccc(F)c(F)c2)nn1)[C@](O)(Cn1cncn1)c1ccc(F)cc1F`, for which the MIC worked out at 0.0625 µg/mL (≈ 0.145 µM) in the experiment on Candida albicans [1], 0.125 µg/mL (≈ 0.289 µM) against Cryptococcus neoformans [2] and 8 µg/mL (≈ 18.5 µM) against Aspergillus fumigatus.
Consider `C[C@@H](c1cn(-c2ccc([N+](=O)[O-])cc2)nn1)[C@](O)(Cn1cncn1)c1ccc(F)cc1F`, for which the figures for the MIC against Cryptococcus neoformans [2] and against Aspergillus fumigatus were 0.25 µg/mL (≈ 0.566 µM) and above 64 µg/mL, respectively.
`C[C@@H](c1cn(-c2ccc(OC(F)F)cc2)nn1)[C@](O)(Cn1cncn1)c1ccc(F)cc1F`: the MIC with Candida albicans [1] stood at 0.0313 µg/mL (≈ 0.0677 µM); against Cryptococcus neoformans [2] it was 0.125 µg/mL (≈ 0.27 µM); in the experiment with Aspergillus fumigatus, 8 µg/mL (≈ 17.3 µM).
On the same counts, the results for `C[C@@H](c1cn(-c2cc(F)cc(F)c2)nn1)[C@](O)(Cn1cncn1)c1ccc(F)cc1F` are 0.0625 µg/mL (≈ 0.145 µM), 0.0625 µg/mL (≈ 0.145 µM) and 8 µg/mL (≈ 18.5 µM).
Take `C[C@@H](c1cn(-c2ccccc2)nn1)[C@](O)(Cn1cncn1)c1ccc(F)cc1F`: the MIC was found to be 0.0625 µg/mL (≈ 0.158 µM) in the experiment with Candida albicans [1], 0.0625 µg/mL (≈ 0.158 µM) against Cryptococcus neoformans [2] and 4 µg/mL (≈ 10.1 µM) against Aspergillus fumigatus.
On to `C[C@@H](c1cn(-c2ccccc2F)nn1)[C@](O)(Cn1cncn1)c1ccc(F)cc1F`, for which the MIC against Candida albicans [1] was determined as 0.0625 µg/mL (≈ 0.151 µM); in the experiment with Cryptococcus neoformans [2] it was 0.0625 µg/mL (≈ 0.151 µM); with Aspergillus fumigatus it was 2 µg/mL (≈ 4.83 µM).
On to `C[C@@H](c1cn(-c2ccc(OCC(F)(F)C(F)(F)F)cc2)nn1)[C@](O)(Cn1cncn1)c1ccc(F)cc1F`, for which the MIC against Cryptococcus neoformans [2] was 0.0625 µg/mL (≈ 0.115 µM); against Aspergillus fumigatus, 8 µg/mL (≈ 14.7 µM).
With `C[C@@H](c1cn(-c2ccc(Cl)cc2Cl)nn1)[C@](O)(Cn1cncn1)c1ccc(F)cc1F`, the minimal inhibitory concentration (MIC) with Cryptococcus neoformans [2] is 0.125 µg/mL (≈ 0.269 µM); against Aspergillus fumigatus, above 8 µg/mL.
In the case of `C[C@@H](c1cn(-c2c(F)c(F)cc(F)c2F)nn1)[C@](O)(Cn1cncn1)c1ccc(F)cc1F`, the MIC was 0.0625 µg/mL (≈ 0.133 µM) against Candida albicans [1], 0.0625 µg/mL (≈ 0.133 µM) in the experiment on Cryptococcus neoformans [2] and 2 µg/mL (≈ 4.27 µM) in the experiment on Aspergillus fumigatus.
As for `C[C@@H](c1cn(-c2ccc(O)cc2)nn1)[C@](O)(Cn1cncn1)c1ccc(F)cc1F`, the MIC is 3 µg/mL (≈ 7.27 µM) against Candida albicans [1], 2 µg/mL (≈ 4.85 µM) in the experiment with Cryptococcus neoformans [2] and above 64 µg/mL in the experiment on Aspergillus fumigatus.
Turning to `CC(=O)c1ccc(-n2cc([C@H](C)[C@](O)(Cn3cncn3)c3ccc(F)cc3F)nn2)cc1`, the MIC against Candida albicans [1] was 0.125 µg/mL (≈ 0.285 µM); with Cryptococcus neoformans [2], 0.25 µg/mL (≈ 0.57 µM); against Aspergillus fumigatus, above 64 µg/mL.
On the same counts, the results for `C[C@@H](c1cn(-c2ccc(OCC(F)(F)F)cc2)nn1)[C@](O)(Cn1cncn1)c1ccc(F)cc1F` are 0.0313 µg/mL (≈ 0.0633 µM), 0.125 µg/mL (≈ 0.253 µM) and 2 µg/mL (≈ 4.05 µM).
On the same counts, the results for `C[C@@H](c1cn(-c2ccc(OCC(F)(F)F)nc2)nn1)[C@](O)(Cn1cncn1)c1ccc(F)cc1F` are 0.0313 µg/mL (≈ 0.0632 µM), 0.0625 µg/mL (≈ 0.126 µM) and 2 µg/mL (≈ 4.04 µM).
For the compound `C[C@@H](c1cn(-c2ccc(Br)cc2)nn1)[C@](O)(Cn1cncn1)c1ccc(F)cc1F`, the MIC in the experiment on Candida albicans [1] stood at 0.0625 µg/mL (≈ 0.131 µM); with Cryptococcus neoformans [2], 0.125 µg/mL (≈ 0.263 µM); against Aspergillus fumigatus, 8 µg/mL (≈ 16.8 µM).
As to `C[C@@H](c1cn(-c2ccc(OC(F)(F)F)cc2)nn1)[C@](O)(Cn1cncn1)c1ccc(F)cc1F`, the MIC with Candida parapsilosis came out at 0.125 µg/mL (≈ 0.26 µM); against Candida albicans [1], 0.0313 µg/mL (≈ 0.0652 µM); against Cryptococcus neoformans [2] it was 0.0625 µg/mL (≈ 0.13 µM); in the experiment on Nakaseomyces glabratus, 0.125 µg/mL (≈ 0.26 µM); in the experiment with Cryptococcus neoformans [3], 0.0625 µg/mL (≈ 0.13 µM); against Aspergillus fumigatus, 4 µg/mL (≈ 8.33 µM). Also, the MIC against Nannizzia gypsea was 2 µg/mL (≈ 4.16 µM); in the experiment on Trichophyton rubrum it was 0.15 µg/mL (≈ 0.312 µM); against Candida albicans [4], 0.0313 µg/mL (≈ 0.0652 µM).
On to `C[C@@H](c1cn(-c2ccc(S(C)(=O)=O)cc2)nn1)[C@](O)(Cn1cncn1)c1ccc(F)cc1F`, for which the MIC in the experiment on Candida albicans [1] is 0.5 µg/mL (≈ 1.05 µM); against Cryptococcus neoformans [2] it was 4 µg/mL (≈ 8.43 µM); in the experiment on Aspergillus fumigatus, above 64 µg/mL.
As for `C[C@@H](c1cn(-c2ccc(Cl)c(F)c2)nn1)[C@](O)(Cn1cncn1)c1ccc(F)cc1F`, the minimal inhibitory concentration (MIC) in the experiment on Candida albicans [1] stood at 0.0313 µg/mL (≈ 0.0697 µM); in the experiment with Cryptococcus neoformans [2], 0.0625 µg/mL (≈ 0.139 µM); against Aspergillus fumigatus it was 16 µg/mL (≈ 35.6 µM).
